Source: ChEMBL document CHEMBL4002573, “New insights into the SAR and drug combination synergy of 2-(quinolin-4-yloxy)acetamides against Mycobacterium tuberculosis” (Eur J Med Chem, 2017)
In brackets after ≈: the same amount, converted by molar mass.

Key:
[1] = test system: Mycobacterium tuberculosis; test: microbe, parasite or virus in culture; details: PE-003, 168 h
Description: Antimycobacterial activity against Mycobacterium tuberculosis PE-003 clinical isolate after 7 days by resazurin reduction microplate assay

[2] = Cytotoxicity against mouse N9 cells assessed as viability at 10 uM after 72 hrs by MTT assay relative to control; assay type: cell-based; details: read-out: Activity
[3] = Cytotoxicity against mouse RAW264.7 cells assessed as viability at 10 uM after 72 hrs by MTT assay relative to control; assay type: cell-based; details: read-out: Activity
Cytochrome P450 2C9 = Cytochrome P450 2C9 (Homo sapiens, UniProt P11712); test: Inhibition of CYP2C9 in human liver microsomes using tolbutamide as substrate by HPLC-MS/MS method; assay type: ADME
Cytochrome P450 2C9, sequence (P11712 whole entry): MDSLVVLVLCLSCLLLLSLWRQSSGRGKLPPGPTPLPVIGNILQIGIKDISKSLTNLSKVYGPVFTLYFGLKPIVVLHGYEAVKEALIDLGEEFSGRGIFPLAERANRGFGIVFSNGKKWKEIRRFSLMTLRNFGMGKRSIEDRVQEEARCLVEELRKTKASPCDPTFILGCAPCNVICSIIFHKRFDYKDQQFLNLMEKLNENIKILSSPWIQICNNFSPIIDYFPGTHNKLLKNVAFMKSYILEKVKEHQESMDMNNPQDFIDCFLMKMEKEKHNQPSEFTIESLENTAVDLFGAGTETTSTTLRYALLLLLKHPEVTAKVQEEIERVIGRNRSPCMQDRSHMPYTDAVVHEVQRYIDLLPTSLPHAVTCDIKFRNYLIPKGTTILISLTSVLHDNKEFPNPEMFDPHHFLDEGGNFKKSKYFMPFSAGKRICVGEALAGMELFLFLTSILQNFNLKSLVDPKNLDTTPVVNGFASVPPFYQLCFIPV

[4] = test system: Mycobacterium tuberculosis; test: microbe, parasite or virus in culture; details: H37Rv, 168 h
Description: Antimycobacterial activity against Mycobacterium tuberculosis H37Rv after 7 days by resazurin reduction microplate assay

[5] = test system: Mycobacterium tuberculosis; assay type: functional; details: H37Rv, 168 h
[6] = Cytotoxicity against African green monkey Vero cells assessed as viability at 10 uM after 72 hrs by MTT assay relative to control; assay type: cell-based; details: chlorocebus sabaeus, read-out: Activity
[7] = Thermodynamic solubility of the compound in 0.1N HCl at pH 1.5 after 24 hrs by HPLC method; assay type: physicochemical; details: read-out: Therm_solubility
[8] = test system: Mycobacterium tuberculosis; assay type: functional, H37Rv
[9] = Cytotoxicity against human HaCaT cells assessed as viability at 10 uM after 72 hrs by MTT assay relative to control; assay type: cell-based; details: read-out: Activity
Cytochrome P450 2E1 = Cytochrome P450 2E1 (Homo sapiens, UniProt P05181); test: Inhibition of CYP2E1 in human liver microsomes using chlorzoxazone as substrate by HPLC-MS/MS method; assay type: ADME
Cytochrome P450 2E1, sequence (P05181 whole entry): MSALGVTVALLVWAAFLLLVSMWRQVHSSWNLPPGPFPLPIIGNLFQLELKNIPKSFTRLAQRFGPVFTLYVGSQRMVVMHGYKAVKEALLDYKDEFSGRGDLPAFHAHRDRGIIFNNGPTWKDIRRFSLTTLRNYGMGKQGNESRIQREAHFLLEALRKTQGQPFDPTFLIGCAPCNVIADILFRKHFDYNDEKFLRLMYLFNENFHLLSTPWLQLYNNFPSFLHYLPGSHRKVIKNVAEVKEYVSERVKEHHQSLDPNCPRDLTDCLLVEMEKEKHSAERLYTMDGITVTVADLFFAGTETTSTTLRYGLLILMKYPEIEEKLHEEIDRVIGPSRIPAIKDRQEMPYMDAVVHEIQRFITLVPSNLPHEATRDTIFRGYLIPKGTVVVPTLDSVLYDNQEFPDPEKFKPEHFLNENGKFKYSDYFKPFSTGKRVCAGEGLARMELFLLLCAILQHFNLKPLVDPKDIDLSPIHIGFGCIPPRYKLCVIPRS

Cytochrome P450 1A2 = molecular target: T1, Cytochrome P450 1A2 (Homo sapiens, UniProt P05177); test: Inhibition of CYP1A2 in human liver microsomes using phenacetin as substrate by HPLC-MS/MS method; assay type: ADME
T1 sequence (P05177 whole entry): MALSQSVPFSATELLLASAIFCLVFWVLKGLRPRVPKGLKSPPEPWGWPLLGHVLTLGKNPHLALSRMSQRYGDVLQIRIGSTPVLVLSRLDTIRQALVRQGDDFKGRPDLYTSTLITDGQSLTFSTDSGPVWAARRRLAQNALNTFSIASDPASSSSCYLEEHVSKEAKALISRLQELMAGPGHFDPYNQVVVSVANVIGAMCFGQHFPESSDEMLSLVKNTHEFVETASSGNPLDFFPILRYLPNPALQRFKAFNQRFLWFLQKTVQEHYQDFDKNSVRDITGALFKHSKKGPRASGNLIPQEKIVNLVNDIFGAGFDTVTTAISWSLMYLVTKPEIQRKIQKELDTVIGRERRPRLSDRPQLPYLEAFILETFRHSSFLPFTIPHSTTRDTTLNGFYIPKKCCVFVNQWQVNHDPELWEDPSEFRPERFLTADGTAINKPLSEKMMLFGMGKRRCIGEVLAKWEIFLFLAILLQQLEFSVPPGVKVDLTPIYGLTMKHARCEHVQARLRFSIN

Cytochrome P450 2C19 = Cytochrome P450 2C19 (Homo sapiens, UniProt P33261); test: Inhibition of CYP2C19 in human liver microsomes using S-(+)-mephenytoin as substrate by HPLC-MS/MS method; assay type: ADME
Cytochrome P450 2C19, sequence (P33261 whole entry): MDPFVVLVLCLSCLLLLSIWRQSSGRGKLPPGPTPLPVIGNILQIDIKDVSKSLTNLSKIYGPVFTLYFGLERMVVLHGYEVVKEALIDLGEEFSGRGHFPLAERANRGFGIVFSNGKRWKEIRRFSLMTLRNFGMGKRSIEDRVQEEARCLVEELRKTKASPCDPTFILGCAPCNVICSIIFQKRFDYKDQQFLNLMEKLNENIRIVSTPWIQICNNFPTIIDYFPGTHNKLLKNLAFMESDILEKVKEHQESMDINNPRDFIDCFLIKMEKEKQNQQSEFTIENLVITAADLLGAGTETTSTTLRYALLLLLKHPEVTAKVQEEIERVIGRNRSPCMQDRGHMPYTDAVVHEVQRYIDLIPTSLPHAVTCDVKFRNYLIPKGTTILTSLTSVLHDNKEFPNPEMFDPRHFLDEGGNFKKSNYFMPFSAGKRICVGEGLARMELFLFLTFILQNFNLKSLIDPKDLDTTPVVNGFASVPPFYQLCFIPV

Cytochrome P450 2D6 = Cytochrome P450 2D6 (Homo sapiens, UniProt P10635); test: Inhibition of CYP2D6 in human liver microsomes using dextromethorphan as substrate by HPLC-MS/MS method; assay type: ADME
Cytochrome P450 2D6, sequence (P10635 whole entry): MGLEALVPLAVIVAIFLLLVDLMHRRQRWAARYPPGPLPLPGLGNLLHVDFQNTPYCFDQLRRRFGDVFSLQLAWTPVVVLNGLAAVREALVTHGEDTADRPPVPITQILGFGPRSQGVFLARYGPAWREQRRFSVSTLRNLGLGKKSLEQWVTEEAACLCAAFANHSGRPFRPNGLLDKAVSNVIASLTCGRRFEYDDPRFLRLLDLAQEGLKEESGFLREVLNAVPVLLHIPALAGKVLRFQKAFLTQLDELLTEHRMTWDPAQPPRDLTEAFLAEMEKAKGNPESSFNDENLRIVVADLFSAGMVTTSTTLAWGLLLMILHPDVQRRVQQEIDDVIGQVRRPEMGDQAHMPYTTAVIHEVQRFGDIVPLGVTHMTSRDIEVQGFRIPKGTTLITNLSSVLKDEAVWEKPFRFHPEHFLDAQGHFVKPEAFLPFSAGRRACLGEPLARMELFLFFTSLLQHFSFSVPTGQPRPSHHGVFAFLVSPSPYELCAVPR

[10] = Cytotoxicity against human HepG2 cells assessed as viability at 10 uM after 72 hrs by MTT assay relative to control; assay type: cell-based; details: read-out: Activity
[11] = test system: Mycobacterium tuberculosis; test: microbe, parasite or virus in culture; details: CDCT-4 (1105/09), 168 h
Description: Antimycobacterial activity against Mycobacterium tuberculosis CDCT-4 (1105/09) clinical isolate after 7 days by resazurin reduction microplate assay

[12] = Intrinsic clearance in human liver S9 fraction at 2 uM by HPLC-MS/MS analysis; assay type: ADME, tissue-based
[13] = Thermodynamic solubility of the compound in acetate buffer at pH 4 after 24 hrs by HPLC method; assay type: physicochemical; details: read-out: Therm_solubility
Cytochrome P450 3A4 = Cytochrome P450 3A4 (Homo sapiens, UniProt P08684); test: Inhibition of CYP3A4 in human liver microsomes using testosterone as substrate by HPLC-MS/MS method; assay type: ADME
Cytochrome P450 3A4, sequence (P08684 whole entry): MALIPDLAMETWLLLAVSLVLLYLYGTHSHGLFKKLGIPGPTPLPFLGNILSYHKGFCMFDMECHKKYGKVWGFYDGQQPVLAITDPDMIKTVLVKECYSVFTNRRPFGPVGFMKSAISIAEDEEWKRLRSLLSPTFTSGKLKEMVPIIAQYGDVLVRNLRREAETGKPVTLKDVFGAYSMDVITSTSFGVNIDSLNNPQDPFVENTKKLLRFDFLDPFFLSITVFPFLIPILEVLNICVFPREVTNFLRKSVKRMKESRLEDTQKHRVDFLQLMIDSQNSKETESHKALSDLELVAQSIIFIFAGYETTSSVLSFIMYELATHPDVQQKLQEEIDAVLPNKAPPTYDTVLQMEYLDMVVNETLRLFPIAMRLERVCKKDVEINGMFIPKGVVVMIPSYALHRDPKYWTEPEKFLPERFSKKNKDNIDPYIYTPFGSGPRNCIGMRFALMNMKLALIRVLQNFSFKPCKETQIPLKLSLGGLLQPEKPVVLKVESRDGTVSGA

[14] = test system: Mycobacterium tuberculosis; assay type: functional; details: H37Rv, 168 h; remark: listed apart in the source
[15] = Kinetic solubility in water at pH 5.8; assay type: physicochemical; details: read-out: Kinetic_solubility
[16] = test system: Mycobacterium tuberculosis; test: Potency index, ratio of isoniazid MIC to test compound MIC for Mycobacterium tuberculosis H37Rv; assay type: functional
[17] = Kinetic solubility in PBS at pH 7.4; assay type: physicochemical; details: read-out: Kinetic_solubility
[18] = test system: Mycobacterium tuberculosis; assay type: functional; details: H37Rv, 168 h; remark: listed apart in the source
[19] = test system: Mycobacterium tuberculosis; assay type: functional; details: H37Rv, 168 h; remark: listed apart in the source
[20] = Half life in human liver S9 fraction at 2 uM by HPLC-MS/MS analysis; assay type: ADME, tissue-based
[21] = test system: Mycobacterium tuberculosis; test: Potency index, ratio of moxifloxacin MIC to test compound MIC for Mycobacterium tuberculosis PE-003 clinical isolate; assay type: functional
[22] = Permeability of the compound at 1 uM […] by PAMPA; assay type: physicochemical; details: read-out: permeability
[23] = test system: Mycobacterium tuberculosis; assay type: functional; details: H37Rv, 168 h; remark: listed apart in the source
[24] = test system: Mycobacterium tuberculosis; test: Bactericidal activity against Mycobacterium tuberculosis H37Rv infected in mouse RAW264.7 cells assessed as bacterial colony formation at 5 uM after 5 days (reference value: 4.1 to 4.73 log10CU); assay type: functional
[25] = test system: Mycobacterium tuberculosis; assay type: functional; details: H37Rv, 168 h; remark: listed apart in the source

Work on CCCCCc1ccc(NC(=O)COc2cc(C)nc3ccc(OC)cc23)cc1 yielded an MIC [1] of 0.001 µM (≈ 0.000392 µg/mL), a viability at 72 h, 10 µM [2] of 110% and a viability at 72 h, 10 µM [3] of 86%. For the same molecule, the IC50 (Cytochrome P450 2C9) was greater than 30 µM, the MIC [4] was 0.005 to 0.01 µM (≈ 0.00196 to 0.00392 µg/mL) and the MIC [5] was 5 ng/mL (≈ 0.0127 µM). For the same molecule, the viability at 72 h, 10 µM [6] was 97%, the solubility thermodynamic at 24 h [7] was 30 µM (≈ 11.8 µg/mL) and the Ratio [8] was 2. For the same molecule, the viability at 72 h, 10 µM [9] was 105%, the IC50 (Cytochrome P450 2E1) was greater than 30 µM and the IC50 (Cytochrome P450 1A2) was greater than 30 µM. The IC50 (Cytochrome P450 2C19) was greater than 30 µM, the IC50 (Cytochrome P450 2D6) was greater than 30 µM and the viability at 72 h, 10 µM [10] was 83%. It also gave an MIC [11] of less than 0.05 µM, a CLhep predicted at 2 µM [12] of 14.8 mL/min/kg and a solubility thermodynamic at 24 h [13] of 20 µM (≈ 7.85 µg/mL). The IC50 (Cytochrome P450 3A4) was greater than 30 µM, the MIC [14] was 20 ng/mL (≈ 0.051 µM) and the solubility kinetic [15] was 2.6 µM (≈ 1.02 µg/mL). It also gave a Ratio [16] of 292, a solubility kinetic [17] of 4.7 µM (≈ 1.84 µg/mL) and an MIC [18] of 2.5 ng/mL (≈ 0.00637 µM). For the same molecule, the MIC [19] was 10 ng/mL (≈ 0.0255 µM), the half-life at 2 µM [20] was 19.4 min and the Ratio [21] was 100. The Papp at 1 µM [22] was 1.7 ×10⁻⁶ cm/s, the MIC [23] was 1 ng/mL (≈ 0.00255 µM) and the Activity [24] was 3.23 log10CFU. For the same molecule, the MIC [25] was 10 ng/mL (≈ 0.0255 µM).
